From patent publication US8722661B2, “Pyrrolopyrimidone and pyrrolopyridone inhibitors of tankyrase” (Genentech, Inc., priority 2012, dated 2014)

Columns and labels:
Tankyrase 1 (TNKS1) = biological target: T1, Tankyrase 1 (TNKS1) (Homo sapiens, UniProt O95271); test: μHTS-TNKS-IWR2 TR-FRET binding assay (TNKS1)
T1 construct: construct: 1088-1327, 1266M
Method: (§1) μHTS-TNKS-IWR2TR-FRET Binding Assay
(§2) (10 μL/well in BD1536-well plate, a single point)
Reagents and Stock Solutions
(§3) Biotin-IWR2: 10 mM Biotin-IWR2 stock in DMSO, stored at −20° C.
Assay buffer 1a (AB 1a) for TNKS dilution: 50 mM Tris, pH 7.4, 100 mM sodium chloride solution, 1 mM magnesium chloride solution, 1 mM DL-dithiothreitol solution, 0.2 mg/mL bovine serum albumin solution, 0.025% NP-40.
Assay buffer 1b (AB 1b) for Biotin-IWR2 dilution: 50 mM Tris, pH 7.4, 100 mM sodium chloride solution, 1 mM magnesium chloride solution, 1 mM DL-dithiothreitol solution, 0.2 mg/mL bovine serum albumin solution, 0.05% NP-40
Assay buffer 1c (AB 1c) for compound dilution: 50 mM Tris, pH 7.4, 100 mM sodium chloride solution, 1 mM magnesium chloride solution, 1 mM DL-dithiothreitol solution, 0.2 mg/mL bovine serum albumin solution
Assay buffer 2 (AB2) for Eu/APC: 50 mM Tris, pH 7.4, 100 mM sodium chloride solution, 1 mM magnesium chloride solution, 0.2 mg/mL bovine serum albumin solution
Reagent Stock Solution Preparation
Prepare BLANK well stock solution: 5% DMSO/AB1b buffer
Prepare TNKS1 stock solution (5× stock): 300 nM TNKS in AB1a buffer
(§4) Transfer 3 μL/well above solution (solution 1,2,3) to an empty assay plate (BD1536-well plate) as follows:
TOTL and cpd wells: Solution 1 (Biotin-IWR2):
BLNK wells: Solution 2 (No Biotin-IWR2):
POSITIVE CONTROL wells: Solution 3 (Biotin-IWR2+XAV939)
(§5) Transfer 3 μL/well of the above diluted compound solutions or compound dilution buffer to the above assay plate.
(§6) Add 2 μL/well of 300 nM TNKS stock solution (4) to every well in the above assay plate.
Centrifuge the assay plate at 2100 rpm for 2 minutes.
(§7) Incubate the assay plate at 26° C. for 30 minutes.
(§8) Incubate the assay plate at 26° C. for 60 minutes.

tankyrase 2 (His6-TNKS2) = biological target: T2, tankyrase 2 (His6-TNKS2) (Homo sapiens, UniProt Q9H2K2); test: μHTS-TNKS-IWR2 TR-FRET binding assay with His6-TNKS2 in place of TNKS1; details: Table I
T2 construct: His6-tankyrase 2 (construct: 934-1166)
T2 sequence (Q9H2K2 934-1166): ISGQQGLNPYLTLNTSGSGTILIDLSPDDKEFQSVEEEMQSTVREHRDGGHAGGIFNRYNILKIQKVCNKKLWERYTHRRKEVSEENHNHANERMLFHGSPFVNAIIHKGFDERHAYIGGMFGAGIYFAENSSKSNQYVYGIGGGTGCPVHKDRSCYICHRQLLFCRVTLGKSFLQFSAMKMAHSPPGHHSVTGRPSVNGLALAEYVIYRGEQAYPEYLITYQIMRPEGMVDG
Method: as §1, §2
(§9) Alternatively, in place of His6-TNKS1 can use either His6-tankyrase 2 (construct: 934-1166) (His6-TNKS2) or His6-PARP1 (full length).
as §3
Positive control: 10 mM XAV 939 in DMSO, stored at −20° C.
(§10) Prepare Biotinylated IWR2 stock solution (3.33× stock) for TOTL and cpd wells: 200 nM Biotin-IWR2 in 5% DMSO/AB1b buffer
(§11) Prepare POSITIVE CONTROL well stock solution (3.33× stock): 200 nM XAV939 in 200 nM Biotin-IWR2/5% DMSO/AB1b buffer
(§12) (Alternatively, use TNKS2 or PARP1 stock solutions.)
(§13) Prepare Eu/APC stock solution (5× stock): 3.5 nM Eu-SA/50 nM APC-His6Ab in AB2 buffer
(§14) Add 25 μL/well 1.5% DMSO/AB1c buffer in each compound well to the compound concentration at 74 μM in 8.8% DMSO/AB1c buffer or in the 2 μL DMSO CONTROL wells (BLANK, TOTAL and POSITIVE wells) in the compound plate.
as §4, §5, §6, §7, §8
(§15) Read the assay plate immediately at excitation wavelength of 330 nm and emission wavelength of […] in time resolved fluorescence mode.
(§16) Representative compound data for assays are listed below in Table I. Values are in uM.

[1] = biological target: T3, PARP1 (His6-PARP1, full length) (Homo sapiens, UniProt P09874); test: μHTS-TNKS-IWR2 TR-FRET binding assay with His6-PARP1 in place of TNKS1; details: Table I
T3 construct: His6-PARP1 (full length)
T3 sequence (P09874 whole entry): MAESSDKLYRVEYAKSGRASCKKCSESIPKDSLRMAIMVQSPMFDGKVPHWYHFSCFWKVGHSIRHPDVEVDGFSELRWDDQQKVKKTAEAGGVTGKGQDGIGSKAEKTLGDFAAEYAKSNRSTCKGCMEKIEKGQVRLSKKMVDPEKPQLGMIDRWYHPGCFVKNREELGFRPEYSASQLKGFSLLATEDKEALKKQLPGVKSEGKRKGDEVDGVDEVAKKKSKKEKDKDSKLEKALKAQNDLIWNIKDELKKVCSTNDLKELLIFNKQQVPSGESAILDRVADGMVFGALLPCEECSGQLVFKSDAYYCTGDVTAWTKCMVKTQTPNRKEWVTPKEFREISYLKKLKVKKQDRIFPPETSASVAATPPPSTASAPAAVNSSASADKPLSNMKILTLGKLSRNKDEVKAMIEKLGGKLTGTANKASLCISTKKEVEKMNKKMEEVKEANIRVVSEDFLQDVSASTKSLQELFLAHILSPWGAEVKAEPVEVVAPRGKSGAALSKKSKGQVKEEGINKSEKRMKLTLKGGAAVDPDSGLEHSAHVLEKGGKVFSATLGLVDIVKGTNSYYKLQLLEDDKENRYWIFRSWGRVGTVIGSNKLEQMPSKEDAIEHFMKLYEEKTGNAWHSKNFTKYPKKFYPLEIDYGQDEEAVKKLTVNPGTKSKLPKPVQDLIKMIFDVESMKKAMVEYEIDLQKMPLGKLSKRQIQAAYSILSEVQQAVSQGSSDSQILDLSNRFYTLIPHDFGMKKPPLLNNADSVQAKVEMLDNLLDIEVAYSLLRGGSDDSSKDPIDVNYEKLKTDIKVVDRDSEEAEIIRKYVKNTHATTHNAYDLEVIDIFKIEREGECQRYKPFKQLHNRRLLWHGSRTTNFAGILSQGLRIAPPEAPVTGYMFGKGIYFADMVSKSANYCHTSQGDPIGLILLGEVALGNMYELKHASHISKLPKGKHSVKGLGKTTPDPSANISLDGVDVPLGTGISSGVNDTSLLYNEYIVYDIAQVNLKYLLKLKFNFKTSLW
Method: as §1, §2, §9, §3
Positive control: 10 mM […] in DMSO, stored at −20° C.
as §10, §11, §12, §13, §14, §4, §5, §6, §7, §8, §15, §16

T1 sequence (O95271 1088-1327): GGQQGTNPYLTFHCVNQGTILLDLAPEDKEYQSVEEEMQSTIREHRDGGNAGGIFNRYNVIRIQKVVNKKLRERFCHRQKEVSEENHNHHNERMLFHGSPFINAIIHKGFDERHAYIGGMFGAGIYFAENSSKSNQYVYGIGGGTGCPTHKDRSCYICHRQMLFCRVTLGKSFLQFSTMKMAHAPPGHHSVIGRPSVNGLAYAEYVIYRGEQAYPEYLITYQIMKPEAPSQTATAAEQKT

SMILES: CC(=O)N1CCN(c2nc3c(ccn3C)c(=O)[nH]2)CC1 [Example 14, 2-(4-Acetyl-piperazin-1-yl)-7-methyl-3,7-dihydro-pyrrolo[2,3-d]pyrimidin-4-one]
- IC50 (Tankyrase 1 (TNKS1)): 0.466 µM
- IC50 (tankyrase 2 (His6-TNKS2)): 0.427 µM
- IC50 [1]: 0.229 µM

SMILES: Cn1ccc2c(=O)[nH]c(N3CC(C)(c4ccc(Br)cc4)C3)nc21 [Example 15, 2-[3-(4-Bromo-phenyl)-3-methyl-azetidin-1-yl]-7-methyl-3,7-dihydro-pyrrolo[2,3-d]pyrimidin-4-one]
- IC50 (Tankyrase 1 (TNKS1)): 0.348 µM
- IC50 (tankyrase 2 (His6-TNKS2)): 0.192 µM
- IC50 [1]: 3.46 µM

SMILES: Cn1ccc2c(=O)[nH]c(N3CCC(c4ccccc4)C3)nc21 (stereo not drawn) [Example 16, 7-Methyl-2-(3-phenyl-pyrrolidin-1-yl)-3,7-dihydro-pyrrolo[2,3-d]pyrimidin-4-one]
- IC50 (Tankyrase 1 (TNKS1)): 0.915 µM
- IC50 (tankyrase 2 (His6-TNKS2)): 1.07 µM
- IC50 [1]: 1.26 µM

SMILES: Cn1ccc2c(=O)[nH]c(N3CCN(c4ccc(F)cc4)CC3)nc21 [Example 17, 2-[4-(4-Fluoro-phenyl)-piperazin-1-yl]-7-methyl-3,7-dihydro-pyrrolo[2,3-d]pyrimidin-4-one]
- IC50 (Tankyrase 1 (TNKS1)): 0.027 µM
- IC50 (tankyrase 2 (His6-TNKS2)): 0.032 µM
- IC50 [1]: 1.08 µM

SMILES: Cn1ccc2c(=O)[nH]c(N3CCN(c4cccc(F)c4)CC3)nc21 [Example 18, 2-[4-(3-Fluoro-phenyl)-piperazin-1-yl]-7-methyl-3,7-dihydro-pyrrolo[2,3-d]pyrimidin-4-one]
- IC50 (Tankyrase 1 (TNKS1)): 0.059 µM
- IC50 (tankyrase 2 (His6-TNKS2)): 0.059 µM
- IC50 [1]: 0.758 µM

SMILES: Cn1ccc2c(=O)[nH]c(N3CCN(c4ccccc4C#N)CC3)nc21 [Example 19, 2-[4-(7-Methyl-4-oxo-4,7-dihydro-3H-pyrrolo[2,3-d]pyrimidin-2-yl)-piperazin-1-yl]-benzonitrile]
- IC50 (Tankyrase 1 (TNKS1)): 0.043 µM
- IC50 (tankyrase 2 (His6-TNKS2)): 0.034 µM
- IC50 [1]: 1.05 µM

SMILES: Cn1ccc2c(=O)[nH]c(N3CCN(c4ccc(F)cc4F)CC3)nc21 [Example 20, 2-[4-(2,4-Difluoro-phenyl)-piperazin-1-yl]-7-methyl-3,7-dihydro-pyrrolo[2,3-d]pyrimidin-4-one]
- IC50 (Tankyrase 1 (TNKS1)): 0.031 µM
- IC50 (tankyrase 2 (His6-TNKS2)): 0.036 µM
- IC50 [1]: 1.22 µM

SMILES: Cn1ccc2c(=O)[nH]c(N3CCN(c4cccc(C#N)c4)CC3)nc21 [Example 21, 3-[4-(7-Methyl-4-oxo-4,7-dihydro-3H-pyrrolo[2,3-d]pyrimidin-2-yl)-piperazin-1-yl]-benzonitrile]
- IC50 (Tankyrase 1 (TNKS1)): 0.081 µM
- IC50 (tankyrase 2 (His6-TNKS2)): 0.09 µM
- IC50 [1]: 0.612 µM

SMILES: Cn1ccc2c(=O)[nH]c(N3CCN(c4ccc(C#N)cc4)CC3)nc21 [Example 22, 4-[4-(7-Methyl-4-oxo-4,7-dihydro-3H-pyrrolo[2,3-d]pyrimidin-2-yl)-piperazin-1-yl]-benzonitrile]
- IC50 (Tankyrase 1 (TNKS1)): 0.097 µM
- IC50 (tankyrase 2 (His6-TNKS2)): 0.074 µM
- IC50 [1]: 0.453 µM

SMILES: Cn1ccc2c(=O)[nH]c(N3CCN(c4ccccc4C(F)(F)F)CC3)nc21 [Example 23, 7-Methyl-2-[4-(2-trifluoromethyl-phenyl)-piperazin-1-yl]-3,7-dihydro-pyrrolo[2,3-d]pyrimidin-4-one]
- IC50 (Tankyrase 1 (TNKS1)): 0.028 µM
- IC50 (tankyrase 2 (His6-TNKS2)): 0.031 µM
- IC50 [1]: 42.1 µM

SMILES: Cn1ccc2c(=O)[nH]c(N3CCN(c4ccc(S(C)(=O)=O)cc4F)CC3)nc21 [Example 24, 2-[4-(2-Fluoro-4-methanesulfonyl-phenyl)-piperazin-1-yl]-7-methyl-3,7-dihydro-pyrrolo[2,3-d]pyrimidin-4-one]
- IC50 (Tankyrase 1 (TNKS1)): 0.035 µM
- IC50 (tankyrase 2 (His6-TNKS2)): 0.047 µM
- IC50 [1]: 1.28 µM

SMILES: Cn1ccc2c(=O)[nH]c(N3CCN(c4cc(C(F)(F)F)ccn4)CC3)nc21 [Example 25, 7-Methyl-2-[4-(4-trifluoromethyl-pyridin-2-yl)-piperazin-1-yl]-3,7-dihydro-pyrrolo[2,3-d]pyrimidin-4-one]
- IC50 (Tankyrase 1 (TNKS1)): 0.292 µM
- IC50 (tankyrase 2 (His6-TNKS2)): 0.2 µM
- IC50 [1]: 0.557 µM

SMILES: Cn1ccc2c(=O)[nH]c(N3CCN(c4ccc(Cl)c(Cl)c4)CC3)nc21 [Example 26, 2-[4-(3,4-Dichloro-phenyl)-piperazin-1-yl]-7-methyl-3,7-dihydro-pyrrolo[2,3-d]pyrimidin-4-one]
- IC50 (Tankyrase 1 (TNKS1)): 0.204 µM
- IC50 (tankyrase 2 (His6-TNKS2)): 0.153 µM
- IC50 [1]: 1.25 µM

SMILES: C=CCCn1ccc2c(=O)[nH]c(N3CCN(c4ccccc4Cl)CC3)nc21 [Example 27, 7-But-3-enyl-2-[4-(2-chloro-phenyl)-piperazin-1-yl]-3,7-dihydro-pyrrolo[2,3-d]pyrimidin-4-one]
- IC50 (Tankyrase 1 (TNKS1)): 5.67 µM
- IC50 (tankyrase 2 (His6-TNKS2)): 6.79 µM
- IC50 [1]: > 50 µM

SMILES: Cn1ccc2c(=O)[nH]c(N3CCN(c4ccccc4F)CC3)nc21 [Example 28, 2-[4-(2-Fluoro-phenyl)-piperazin-1-yl]-7-methyl-3,7-dihydro-pyrrolo[2,3-d]pyrimidin-4-one]
- IC50 (Tankyrase 1 (TNKS1)): 0.04 µM
- IC50 (tankyrase 2 (His6-TNKS2)): 0.08 µM
- IC50 [1]: 3.28 µM

SMILES: Cn1ccc2c(=O)[nH]c(N3CCN(c4ccccc4)CC3)nc21 [Example 29, 7-Methyl-2-(4-phenyl-piperazin-1-yl)-3,7-dihydro-pyrrolo[2,3-d]pyrimidin-4-one]
- IC50 (Tankyrase 1 (TNKS1)): 0.043 µM
- IC50 (tankyrase 2 (His6-TNKS2)): 0.045 µM
- IC50 [1]: 0.732 µM

SMILES: Cn1ccc2c(=O)[nH]c(N3CCN(c4ccccc4Cl)CC3)nc21 [Example 30, 2-[4-(2-Chloro-phenyl)-piperazin-1-yl]-7-methyl-3,7-dihydro-pyrrolo[2,3-d]pyrimidin-4-one]
- IC50 (Tankyrase 1 (TNKS1)): 0.031 µM
- IC50 (tankyrase 2 (His6-TNKS2)): 0.033 µM
- IC50 [1]: 1.4 µM

SMILES: Cn1ccc2c(=O)[nH]c(N3CCN(c4cnccn4)CC3)nc21 [Example 31, 7-Methyl-2-(2,3,5,6-tetrahydro-[1,2′]bipyrazinyl-4-yl)-3,7-dihydro-pyrrolo[2,3-d]pyrimidin-4-one]
- IC50 (Tankyrase 1 (TNKS1)): 0.155 µM
- IC50 (tankyrase 2 (His6-TNKS2)): 0.133 µM
- IC50 [1]: 0.318 µM

SMILES: Cn1ccc2c(=O)[nH]c(N3CCN(c4ccc(C#N)cn4)CC3)nc21 [Example 32, 6-[4-(7-Methyl-4-oxo-4,7-dihydro-3H-pyrrolo[2,3-d]pyrimidin-2-yl)-piperazin-1-yl]-nicotinonitrile]
- IC50 (Tankyrase 1 (TNKS1)): 0.129 µM
- IC50 (tankyrase 2 (His6-TNKS2)): 0.09 µM
- IC50 [1]: 0.229 µM

SMILES: Cn1ccc2c(=O)[nH]c(N3C[C@@H]4C[C@H]3CN4c3cccc(F)c3)nc21 [Example 33, 2-[(1S,4S)-5-(3-Fluoro-phenyl)-2,5-diaza-bicyclo[2.2.1]hept-2-yl]-7-methyl-3,7-dihydro-pyrrolo[2,3-d]pyrimidin-4-one]
- IC50 (Tankyrase 1 (TNKS1)): 6.18 µM
- IC50 (tankyrase 2 (His6-TNKS2)): 6.08 µM
- IC50 [1]: 1.12 µM

SMILES: Cn1ccc2c(=O)[nH]c(N3CCN(c4c(Cl)cncc4Cl)CC3)nc21 [Example 34, 2-[4-(3,5-Dichloro-pyridin-4-yl)-piperazin-1-yl]-7-methyl-3,7-dihydro-pyrrolo[2,3-d]pyrimidin-4-one]
- IC50 (Tankyrase 1 (TNKS1)): 0.025 µM
- IC50 (tankyrase 2 (His6-TNKS2)): 0.024 µM
- IC50 [1]: 1.37 µM

SMILES: Cn1ccc2c(=O)[nH]c(N3CCN(c4ccccc4F)CC3)cc21 [Example 35, 6-[4-(2-Fluoro-phenyl)-piperazin-1-yl]-1-methyl-1,5-dihydro-pyrrolo[3,2-c]pyridin-4-one]
- IC50 (Tankyrase 1 (TNKS1)): 0.051 µM
- IC50 (tankyrase 2 (His6-TNKS2)): 0.059 µM
- IC50 [1]: 1.63 µM

SMILES: CCn1ccc2c(=O)[nH]c(N3CCN(c4ccccc4F)CC3)cc21 [Example 36, 1-Ethyl-6-[4-(2-fluoro-phenyl)-piperazin-1-yl]-1,5-dihydro-pyrrolo[3,2-c]pyridin-4-one]
- IC50 (Tankyrase 1 (TNKS1)): 0.273 µM
- IC50 (tankyrase 2 (His6-TNKS2)): 0.251 µM
- IC50 [1]: 21 µM

SMILES: O=c1[nH]c(-c2ccc(C(F)(F)F)cc2)nc2[nH]ccc12 [Example 37, 2-(4-Trifluoromethyl-phenyl)-3,7-dihydro-pyrrolo[2,3-d]pyrimidin-4-one]
- IC50 (Tankyrase 1 (TNKS1)): 0.11 µM
- IC50 (tankyrase 2 (His6-TNKS2)): 0.217 µM
- IC50 [1]: 1.13 µM
